Key:
Assay type in all cases: cell-based
[1] = system: NS0 Cell Line 2 (expressing BAK502G9, an anti-IL-13 antibody); test: Cell doubling time of NS0 Cell Line 2 during cell expansion with NAC-supplemented medium
From the text: (§1) To investigate the role of N-Acetylcysteine on thaw recovery, cell viability, cell growth and cell doubling time on subsequent passaging, the following methods were used. Three different NS0 cell lines cultured in one to three different Animal Protein Free (“APF”) media were investigated to study the effect of N-acetylcysteine (NAC) on cell growth at vial thaw and during routine cell expansion. One of the cell lines was a NS0 null host cell that had not been transformed to express a recombinant protein (NS0 Null Cell Line). The other two NS0 cell lines were engineered to express a therapeutic recombinant protein: NS0 Cell Line 1 (expressing an anti-IL-9 antibody) and NS0 Cell Line 2 (expressing BAK502G9, an anti-IL-13 antibody). NS0 Cell Line 1 was thawed and expanded in two different APF media (APF Medium 1 or APF Medium 2) supplemented with various concentrations of NAC ranging from 1.5 mM to 2.5 mM. NS0 Cell Line 2 was thawed and expanded in three different APF media (APF Medium 1, APF Medium 2 or a commercially available NS0 cell culture media (CD Hybridoma+cholesterol from Invitrogen/Gibco)) supplemented with NAC ranging from 0.5 mM to 2.5 mM, while the untransformed host cell line (NS0 Null Cell Line) was thawed in APF medium 2 supplemented with NAC ranging from 0.5 mM to 1.5 mM. NAC was obtained from Sigma and was either added to the medium directly or dissolved in water at 100 mM concentration before adding to the media at the appropriate concentration. All three media (APF Medium 1, APF Medium 2, and CD Hybridoma+cholesterol from Invitrogen/Gibco) supported growth of NS0 cells, as illustrated in FIGS. 1-12. APF Medium 1 and APF Medium 2 contain standard cell culture components including: amino acids, vitamins, lipids, sugar, small peptides, pH buffer, trace metals, inorganic salts, nucleotides, nucleotide precursors, surfactants, reducing agents, cholesterol, lipids and antioxidants.
(§2) Viable cell densities during the first 3 to 4 days (i.e. exponential growth phase) at each passage were used to calculate population doubling times during both the first few days after the vial thaw while the cells were recovering from the thaw and during subsequent cell passages when the cells have fully recovered and reached a consistent doubling time from passage to passage.
NS0 cells (i.e. NS0 Cell Line 2) expressing a monoclonal antibody (i.e. BAK502G9, an anti-IL-13 antibody) were cultured in animal-protein free (APF) medium (i.e. APF media 1, APF media 2 or CD Hybridoma medium (Gibco) supplemented with cholesterol (1× Invitrogen Cholesterol Lipid Concentrate)). The cells used in the vial thaw studies described in Example 2 were split into the same media (APF media 1, APF media 2 or CD Hybridoma medium+cholesterol) supplemented with various concentrations of N-acetylcysteine and allowed to recover in subsequent passages until a consistent doubling time from passage to passage was achieved. Viable cell density during exponential growth phase after recovery was used to calculate average cell doubling time as described in Example 1.

NS0 Null Cell Line [2] = test: Cell doubling time of NS0 Null Cell Line at vial thaw with NAC-supplemented medium; details: for cell doubling time at vial thaw: control medium 67.8 hours
From the text: as §1
(§3) Prior to vial thaw, media were temperature and pH equilibrated for a minimum of 1 hour in a 6% CO2 incubator at 37° C. with agitation at 120 rpm on a shaker. Vials were thawed using a 37° C. water bath and the entire contents were transferred equilibrated media. A cell count using Beckman Vi-Cell (an image-based cell viability analyzer) was obtained to measure the viable cell density and viability.
as §2
NS0 cells (i.e. NS0 Null Cell Line) not transfected with a heterologous protein were in a frozen stock. Frozen NS0 Null Cell Line cells were thawed in animal-protein free (APF) medium (i.e. APF media 2) supplemented with various concentrations of N-acetylcysteine (NAC) and viable cell density during exponential growth phase was used to calculate average cell doubling time as described in Example 1.

[3] = system: NS0 Cell Line 1 (expressing an anti-IL-9 antibody); test: Cell doubling time of NS0 Cell Line 1 at vial thaw with NAC-supplemented medium; details: for average cell doubling time at vial thaw: control medium 57.6 hours; for cell doubling time at vial thaw: control medium 109.8 hours
From the text: as §1, §3, §2
NS0 cells (i.e. NS0 Cell Line 1) expressing an anti-IL-9 monoclonal antibody were in a frozen stock. Frozen NS0 Cell Line 1 cells were thawed in animal-protein free (APF) medium (i.e. APF media 1 or APF media 2) supplemented with various concentrations of N-acetylcysteine (NAC) and viable cell density during exponential growth phase was used to calculate average cell doubling time as described above.

NS0 Null Cell Line [4] = test: Cell doubling time of NS0 Null Cell Line during cell expansion with NAC-supplemented medium; details: for Average Doubling Time: APF Medium 2, during expansion, 0.0 mM control 31.9
From the text: as §1, §2
NS0 cells (i.e. NS0 Null Cell Line) not transfected with a heterologous protein were cultured in animal-protein free (APF) medium (i.e. APF media 2). The cells used in the vial thaw studies described in Example 3 were split into the same media (APF media 2 supplemented with various concentrations of N-acetylcysteine) and allowed to recover in subsequent passages until a consistent doubling time from passage to passage was achieved. Viable cell density during exponential growth phase after recovery was used to calculate average cell doubling time as described in Example 1.

[5] = system: NS0 Cell Line 2 (expressing BAK502G9, an anti-IL-13 antibody); test: Cell doubling time of NS0 Cell Line 2 at vial thaw with NAC-supplemented medium
From the text: as §1, §3, §2
NS0 cells (i.e. NS0 Cell Line 2) expressing a monoclonal antibody (i.e. BAK502G9, an anti-IL-13 antibody) were in a frozen stock. Frozen NS0 Cell Line 2 cells were thawed in animal-protein free (APF) medium (i.e. APF media 1, APF media 2 or CD Hybridoma medium (Gibco) supplemented with cholesterol (1× Invitrogen Cholesterol Lipid Concentrate)) supplemented with various concentrations of N-acetylcysteine (NAC) and viable cell density during exponential growth phase was used to calculate average cell doubling time as described in Example 1.

[6] = system: NS0 Cell Line 1 (expressing an anti-IL-9 antibody); test: Cell doubling time of NS0 Cell Line 1 during cell expansion with NAC-supplemented medium
From the text: as §1, §2
NS0 cells (i.e. NS0 Cell Line 1) expressing an anti-IL-9 monoclonal antibody were cultured in animal-protein free (APF) medium (i.e. APF media 1 or APF media 2). The cells used in the vial thaw studies described in Example 1 were split into the same media (APF media 1 or APF media 2 supplemented with various concentrations of N-acetylcysteine) and allowed to recover in subsequent passages until a consistent doubling time from passage to passage was achieved. Viable cell density during exponential growth phase after recovery was used to calculate average cell doubling time as described in Example 1.

[7] = during expansion, about 0.5 mM to about 2.5 mM NAC, three media
[8] = vial thaw, 0.5 mM to 1.5 mM NAC, APF medium 2
[9] = vial thaw, about 1.5 mM to about 2.5 mM NAC, APF media 1 and 2, vs control medium
[10] = vial thaw, about 0.5 mM to about 2.5 mM NAC, three media, vs control medium
[11] = during expansion, about 1.5 mM to about 2.5 mM NAC, APF media 1 and 2

CC(=O)N[C@@H](CS)C(=O)O [NAC, (2R) -2-acetamido-3-sulfanylpropanoic acid]
Average Doubling Time ([1]; APF Medium 1, during expansion, 0.5 mM NAC, 0.0 mM control 41.7): 35.4 h | Average Doubling Time ([1]; APF Medium 1, during expansion, 1.0 mM NAC, 0.0 mM control 41.7): 31.2 h | Average Doubling Time ([1]; APF Medium 1, during expansion, 2.5 mM NAC, 0.0 mM control 41.7): 31.2 h | Average Doubling Time ([1]; APF Medium 2, during expansion, 0.5 mM NAC, 0.0 mM control 38.1): 30.2 h | Average Doubling Time ([1]; APF Medium 2, during expansion, 1.0 mM NAC, 0.0 mM control 38.1): 28.8 h | Average Doubling Time ([1]; APF Medium 2, during expansion, 2.0 mM NAC, 0.0 mM control 38.1): 31.5 h | Average Doubling Time ([1]; Invitrogen CD Hybridoma Medium supplemented with cholesterol, during expansion, 0.5 mM NAC, 0.0 mM control 40.7): 39.7 h | Average Doubling Time ([1]; Invitrogen CD Hybridoma Medium supplemented with cholesterol, during expansion, 1.0 mM NAC, 0.0 mM control 40.7): 37.5 h | Average Doubling Time ([1]; Invitrogen CD Hybridoma Medium supplemented with cholesterol, during expansion, 2.0 mM NAC, 0.0 mM control 40.7): 35.7 h | cell growth [1, 7]: increases | cell viability [1, 7]: increases | cell doubling time at vial thaw (NS0 Null Cell Line [2]; APF media 2, 0.5 mM NAC): 36.8 h | cell doubling time at vial thaw (NS0 Null Cell Line [2]; APF media 2, 1.0 mM NAC): 38.4 h | cell doubling time at vial thaw (NS0 Null Cell Line [2]; APF media 2, 1.5 mM NAC): 57.9 h | cell growth (NS0 Null Cell Line [2]; [8]): increased | cell viability (NS0 Null Cell Line [2]; [8]): improved | average cell doubling time at vial thaw ([3]; APF media 1, 1.5 mM NAC): 55.6 h | average cell doubling time at vial thaw ([3]; APF media 1, 2.0 mM NAC): 48.4 h | average cell doubling time at vial thaw ([3]; APF media 1, 2.5 mM NAC): 53.9 h | cell doubling time at vial thaw ([3]; APF media 2, 1.5 mM NAC): 47.5 h | cell doubling time at vial thaw ([3]; APF media 2, 2.0 mM NAC): 56.9 h | cell doubling time at vial thaw ([3]; APF media 2, 2.5 mM NAC): 47.7 h | cell growth [3, 9]: increases | cell viability [3, 9]: increases | Average Doubling Time (NS0 Null Cell Line [4]; 0.5 mM NAC): 26.4 h | Average Doubling Time (NS0 Null Cell Line [4]; 1.0 mM NAC): 26.4 h | Average Doubling Time (NS0 Null Cell Line [4]; 1.5 mM NAC): 26.2 h | cell growth (NS0 Null Cell Line [4]; during expansion, 0.5 mM to 1.5 mM NAC, APF medium 2): increased | cell viability (NS0 Null Cell Line [4]; during expansion, about 0.5 mM to about 2.0 mM NAC, statement covers three NS0 cell lines in three media): increased | average cell doubling time at vial thaw ([5]; APF media 1, 0.5 mM NAC, control medium 44.6 hours): 39.6 h | average cell doubling time at vial thaw ([5]; APF media 1, 1.0 mM NAC, control medium 44.6 hours): 41.6 h | average cell doubling time at vial thaw ([5]; APF media 1, 2.5 mM NAC, control medium 44.6 hours): 37.5 h | average cell doubling time at vial thaw ([5]; APF media 2, 0.5 mM NAC, control medium 77.0 hours): 57.7 h | average cell doubling time at vial thaw ([5]; APF media 2, 1.0 mM NAC, control medium 77.0 hours): 37.0 h | average cell doubling time at vial thaw ([5]; APF media 2, 2.0 mM NAC, control medium 77.0 hours): 39.7 h | average cell doubling time at vial thaw ([5]; CD Hybridoma medium (Gibco) + 1x Cholesterol Lipid Concentrate, 0.5 mM NAC, control medium 35.5 hours): 34.7 h | average cell doubling time at vial thaw ([5]; CD Hybridoma medium (Gibco) + 1x Cholesterol Lipid Concentrate, 1.0 mM NAC, control medium 35.5 hours): 30.6 h | average cell doubling time at vial thaw ([5]; CD Hybridoma medium (Gibco) + 1x Cholesterol Lipid Concentrate, 2.0 mM NAC, control medium 35.5 hours): 30.9 h | cell growth [5, 10]: increases | cell viability [5, 10]: increases | Average Doubling Time ([6]; APF Medium 1, during expansion, 1.5 mM NAC, 0.0 mM control 47.0): 42.3 h | Average Doubling Time ([6]; APF Medium 1, during expansion, 2.0 mM NAC, 0.0 mM control 47.0): 46.1 h | Average Doubling Time ([6]; APF Medium 1, during expansion, 2.5 mM NAC, 0.0 mM control 47.0): 63.6 h | Average Doubling Time ([6]; APF Medium 2, during expansion, 1.5 mM NAC, 0.0 mM control 44.3): 34.8 h | Average Doubling Time ([6]; APF Medium 2, during expansion, 2.0 mM NAC, 0.0 mM control 44.3): 34.6 h | Average Doubling Time ([6]; APF Medium 2, during expansion, 2.5 mM NAC, 0.0 mM control 44.3): 34.8 h | cell growth [6, 11]: increases | cell viability [6, 11]: increases

Source: patent US11555175B2, “Cell culture methods and media comprising N-acetylcysteine” (Medimmune, LLC, priority 2014, dated 2023)
